Where two headings read alike, the source gives them in different places.
Assay: APP processing: AlphaLisa assay of secreted Aβ40 and Aβ42 from SP4CT cells
Format: cell-based
Conditions: Homo sapiens, SH-SY5Y cells expressing amyloid β protein (SP4CT cells)
Procedure: APP Processing (Assay Quantitates Secreted Aβ Analytes from Cell Lines):
The effect of compounds on the abundance of Aβ40 and Aβ42 peptides generated from SH-SY5Y cells expressing amyloid β protein (SP4CT cells) are determined by an AlphaLisa™ assay. Analogous to an ELISA assay, generation of […] AlphaLisa™ assay requires “donor” and “acceptor” beads to be brought in close proximity by specific antibody recognition of either Aβ40 or Aβ42 peptides. The assay is accomplished by removing media from compound-treated SP4CT cells to two different microplates, followed by the addition of donor beads conjugated with streptavidin binding a biotinylated anti-amyloid β monocolonal antibody (clone 4G8). Acceptor beads directly conjugated with anti-Aβ40 monoclonal antibody (G210) are added to one microplate and anti-Aβ42 monoclonal antibody (12F4) acceptor beads were added to the other. Abundance of Aβ40 and Aβ42 is directly proportional to the luminescent signal generated following excitation of donor beads by laser light.

[1] = read-out: IC50, inhibition of production of Aβ40 peptide
[2] = read-out: IC50, inhibition of production of Aβ42 peptide

Row | Structure (SMILES) | IC50 [1] [nM] | IC50 [2] [nM]
1 | CCn1nc(-c2cccc(C(C)(C)NS(=O)(=O)CC(F)(F)F)c2)cc1Oc1ccc(CN2CCOCC2)cc1 [Example 78, N-[1-(3-{1-ethyl-5-[4-(morpholin-4-ylmethyl)phenoxy]-1H-pyrazol-3-yl}phenyl)-1-methylethyl]-2,2,2-trifluoroethanesulfonamide] | < 200 | < 200
2 | CCn1nc(-c2cccc(C(C)(C)NS(=O)(=O)CC(F)(F)F)c2)cc1Oc1ccc(C(C)=O)cc1 [Example 69, N-(1-{3-[5-(4-acetylphenoxy)-1-ethyl-1H-pyrazol-3-yl]phenyl}-1-methylethyl)-2,2,2-trifluoroethanesulfonamide] | < 200 | < 200
3 | CCn1nc(-c2cccc(C(C)(C)NS(=O)(=O)CC(F)(F)F)c2)cc1Oc1ccc(CNCC2(C)CCCO2)cc1 (centres unmarked) [Example 90, N-[1-(3-{1-ethyl-5-[4-({[(2-methyltetrahydrofuran-2-yl)methyl]amino}methyl)phenoxy]-1H-pyrazol-3-yl}phenyl)-1-methylethyl]-2,2,2-trifluoroethanesulfonamide] | < 200 | < 200
4 | CCn1nc(Oc2ccc(C(F)(F)F)cc2)cc1-c1cccc(C(C)(C)NS(=O)(=O)N2CCCCC2)c1 [Example 27, N-[1-(3-{1-ethyl-3-[4-(trifluoromethyl)phenoxy]-1H-pyrazol-5-yl}phenyl)-1 methylethyl]piperidine-1-sulfonamide] | < 200 | < 200
5 | CCn1nc(-c2cccc(C3(NS(=O)(=O)CC(F)(F)F)CC3)c2)cc1Oc1ncc(C(F)(F)F)cc1Cl [Example 39, N-{1-[3-(5-{[3-chloro-5-(trifluoromethyl)pyridin-2-yl]oxy}-1-ethyl-1H-pyrazol-3-yl)phenyl]cyclopropyl}-2,2,2-trifluoroethanesulfonamide] | < 200 | < 200
6 | CCCNS(=O)(=O)NC(C)(C)c1cccc(-c2cc(Oc3ccc(C(F)(F)F)cc3)nn2CC)c1 [Example 23, N-[1-(3-{1-ethyl-3-[4-(trifluoromethyl)phenoxy]-1H-pyrazol-5-yl}phenyl)-1-methylethyl]-N′-propylsulfamide] | < 200 | < 200
7 | CCn1nc(-c2cccc(C(C)(C)NS(=O)(=O)CC(F)(F)F)c2)cc1Oc1ccc(CNCc2ccncc2)cc1 [Example 89, N-(1-{3-[1-ethyl-5-(4-{[(pyridin-4-ylmethyl)amino]methyl}phenoxy)-1H-pyrazol-3-yl]phenyl}-1-methylethyl)-2,2,2-trifluoroethanesulfonamide] | < 200 | < 200
8 | CCn1nc(-c2cccc(C3(NS(=O)(=O)NCC(C)C)CC3)c2)cc1Oc1ccc(C(F)(F)F)cc1 [Example 47, N-[1-(3-{1-ethyl-5-[4-(trifluoromethyl)phenoxy]-1H-pyrazol-3-yl}phenyl)cyclopropyl]-N′-isobutylsulfamide] | < 200 | < 200
9 | CCn1nc(-c2cccc(C3(NS(=O)(=O)CC(F)(F)F)COC3)c2)cc1Oc1ccc(C#N)cc1 [Example 128] | < 200 | < 200
10 | CCCNS(=O)(=O)NC1(c2cccc(-c3cc(Oc4ccc(C(F)(F)F)cc4)n(CC)n3)c2)CC1 [Example 46, N-[1-(3-{1-ethyl-5-[4-(trifluoromethyl)phenoxy]-1H-pyrazol-3-yl}phenyl)cyclopropyl]-N′-propylsulfamide] | < 200 | < 200
11 | CCn1nc(-c2cncc(C3(NS(=O)(=O)NCC(F)(F)F)COC3)c2)cc1Oc1ccc(C(F)(F)F)cc1 [Example 127, N-[3-(5-{1-ethyl-5-[4-(trifluoromethyl)phenoxy]-1H-pyrazol-3-yl}pyridine-3-yl)oxetan-3-yl]-N′-(2,2,2-trifluoroethyl)sulfamide] | < 200 | < 200
12 | Cn1nc(-c2cccc(C3(NS(=O)(=O)CC(F)(F)F)CC3)c2)cc1Oc1ccc(C(F)(F)F)cc1 [Example 106, 2,2,2-trifluoro-N-[1-(3-{1-methyl-5-[4-(trifluoromethyl)phenoxy]-1H-pyrazol-3-yl}phenyl)cyclopropyl]ethanesulfonamide] | < 200 | < 200
13 | CCn1nc(-c2cccc(C(C)(C)NS(=O)(=O)CC(F)(F)F)c2)c(Cl)c1Oc1ccc(C(F)(F)F)cc1 [Example 112, N-[2-(3-{4-chloro-1-ethyl-5-[4-(trifluoromethyl)phenoxy]-1H-pyrazol-3-yl}phenyl)propan-2-yl]-2,2,2-trifluoroethanesulfonamide] | < 200 | < 200

More lines, now with the values ahead:

Row | IC50 [1] [nM] | IC50 [2] [nM] | Structure (SMILES)
14 | < 200 | < 200 | CCn1nc(Oc2ccc(C(F)(F)F)cc2)cc1-c1cccc(C(C)(C)NS(=O)(=O)NC2CCCC2)c1 [Example 18, N-cyclopentyl-N′-[1-(3-{1-ethyl-3-[4-(trifluoromethyl)phenoxy]-H-pyrazol-5-yl}phenyl)-1-methylethyl]sulfamide]
15 | < 200 | < 200 | CCn1nc(-c2cccc(C3(NS(=O)(=O)CC(F)(F)F)CC3)c2)cc1Oc1ccncc1 [Example 50, N-(1-{3-[1-ethyl-5-(pyridin-4-yloxy)-1H-pyrazol-3-yl]phenyl}cyclopropyl)-2,2,2-trifluoroethanesulfonamide]
16 | < 200 | < 200 | CCn1nc(-c2cncc(C3(NS(=O)(=O)CC(F)(F)F)CC3)c2)cc1Oc1ccc(C(F)(F)F)cc1 [Example 52, N-[1-(5-{1-ethyl-5-[4-(trifluoromethyl)phenoxy]-1H-pyrazol-3-yl}pyridin-3-yl)cyclopropyl]-2,2,2-trifluoroethanesulfonamide]
17 | < 200 | < 200 | CCn1nc(Oc2ccc(C(F)(F)F)cn2)cc1-c1ccc2c(c1)CC(NS(=O)(=O)NCC(F)(F)F)C2 (centres unmarked) [Example 122, N-[5-(1-ethyl-3-{[5-(trifluoromethyl)pyridin-2-yl]oxy}-1H-pyrazol-5-yl)-2,3-dihydro-1H-inden-2-yl]-N′-(2,2,2-trifluoroethyl)sulfamide]
18 | < 200 | < 200 | CCn1nc(-c2cccc(C3(NS(=O)(=O)NC4CC(F)(F)C4)COC3)c2)cc1Oc1ccc(C#N)cc1 [Example 130, N-(3-{3-[5-(4-cyanophenoxy)-1-ethyl-1H-pyrazol-3-yl]phenyl}oxetane-3-yl)-N′-(3,3-difluorocyclobutyl)sulfamide]
19 | < 200 | < 200 | CCn1nc(-c2cccc(C(C)(C)NS(=O)(=O)CC(F)(F)F)c2)cc1Oc1ccc(C(O)C(C)C)cc1 (centres unmarked) [Example 66, N-[1-(3-{1-ethyl-5-[4-(1-hydroxy-2-methylpropyl)phenoxy]-1H-pyrazol-3-yl}phenyl)-1-methylethyl]-2,2,2-trifluoroethanesulfonamide]
20 | < 200 | < 200 | CCn1nc(-c2cccc(C(C)(C)NS(=O)(=O)CC(F)(F)F)c2)cc1Oc1ccc(CNc2ccccc2)cc1 [Example 84, N-[1-(3-{5-[4-(anilinomethyl)phenoxy]-1-ethyl-1H-pyrazol-3-yl}phenyl)-1-methylethyl]-2,2,2-trifluoroethanesulfonamide]
21 | < 200 | < 200 | CCn1nc(-c2cccc(C(C)(C)NS(=O)(=O)CC(F)(F)F)c2)cc1Oc1ccc(CO)cc1 [Example 62, N-[1-(3-{1-ethyl-5-[4-(hydroxymethyl)phenoxy]-1H-pyrazol-3-yl}phenyl)-1-methylethyl]-2,2,2-trifluoroethanesulfonamide]
22 | < 200 | < 200 | CCn1nc(Oc2ccc(C(F)(F)F)cc2)cc1-c1cccc(C(C)(C)NS(=O)(=O)NC)c1 [Example 24, N-[1-(3-{1-ethyl-3-[4-(trifluoromethyl)phenoxy]-1H-pyrazol-5-yl}phenyl)-1-methylethyl]-N′-methylsulfamide]
23 | < 200 | < 200 | CCn1nc(-c2cccc(C3(NS(=O)(=O)CC4CCC4)CC3)c2)cc1Oc1ccc(C(F)(F)F)cn1 [Example 42, 1-cyclobutyl-N-{1-[3-(1-ethyl-5-{[5-(trifluoromethyl)pyridin-2-yl]oxy}-1H-pyrazol-3-yl)phenyl]cyclopropyl} methanesulfonamide]
24 | < 200 | < 200 | CCn1nc(-c2cccc(C3(NS(=O)(=O)NC)CC3)c2)cc1Oc1ccc(C(F)(F)F)cn1 [Example 45, N-{1-[3-(1-ethyl-5-{[5-(trifluoromethyl)pyridin-2-yl]oxy}-1H-pyrazol-3-yl)phenyl]cyclopropyl}-N′-methylsulfamide]
25 | < 200 | < 200 | CCn1nc(-c2cccc(C(C)(C)NS(=O)(=O)N3CCCC3)c2)cc1Oc1ccc(C(F)(F)F)cc1 [Example 11, N-[1-(3-{1-ethyl-5-[4-(trifluoromethyl)phenoxy]-1H-pyrazol-3-yl}phenyl)-1-methylethyl]pyrrolidine-1-sulfonamide]
26 | < 200 | < 200 | CCn1nc(-c2cccc(C(C)(C)NS(=O)(=O)CC(F)(F)F)c2)cc1Oc1ccc(-c2nnc(C)o2)cc1 [Example 75, N-[1-(3-{1-ethyl-5-[4-(5-methyl-1,3,4-oxadiazol-2-yl)phenoxy]-1H-pyrazol-3-yl}phenyl)-1-methylethyl]-2,2,2-trifluoroethanesulfonamide]
27 | < 200 | < 200 | CCn1nc(-c2ccc3c(c2)CC(NS(=O)(=O)NCC(F)(F)F)C3)cc1Oc1ccc(C(F)(F)F)cc1 (centres unmarked) [Example 121]
28 | < 200 | < 200 | CCn1nc(-c2cccc(C(C)(C)NS(=O)(=O)NC)c2)cc1Oc1ccc(C(F)(F)F)cc1 [Example 10, N-[1-(3-{1-ethyl-5-[4-(trifluoromethyl)phenoxy]-1H-pyrazol-3-yl}phenyl)-1-methylethyl]-N′-methylsulfamide]

From patent US8871796B2, “Diaryl ether derivatives as notch sparing gamma secretase inhibitors” (Merck Sharp & Dohme Corp., priority 2009, dated 2014)
